This note sets out measurements from patent publication US10106538B2, “Inhibitors of protein kinases” (PRINCETON DRUG DISCOVERY INC, priority 2015, dated 2018).

What all share (test): Off-chip Mobility Shift Assay (MSA) kinase inhibition
Common to all, as to format: biochemical

For one assay, the target named is T1, LYNb (Homo sapiens, UniProt P07948).
T1 construct: purchased Carna Biosciences
The conditions noted are these: for inhibition at 0.1 µM: inhibitor concentration 0.1 μM. The procedure, abridged:
(§1)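 Reactions containing test compound, kinase, substrate, ATP and metal ions ran for 1 or 5 hour(s) at room temperature in HEPES buffer (20 mM, pH 7.5) with 0.01% Triton X100 and 2 mM DTT. Phosphorylation was quantified by off-chip mobility shift.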

For a further assay, the target named is T2, Erk1 (Homo sapiens, UniProt P27361).
T2 construct: purchased Carna Biosciences
T2 sequence (P27361 whole entry): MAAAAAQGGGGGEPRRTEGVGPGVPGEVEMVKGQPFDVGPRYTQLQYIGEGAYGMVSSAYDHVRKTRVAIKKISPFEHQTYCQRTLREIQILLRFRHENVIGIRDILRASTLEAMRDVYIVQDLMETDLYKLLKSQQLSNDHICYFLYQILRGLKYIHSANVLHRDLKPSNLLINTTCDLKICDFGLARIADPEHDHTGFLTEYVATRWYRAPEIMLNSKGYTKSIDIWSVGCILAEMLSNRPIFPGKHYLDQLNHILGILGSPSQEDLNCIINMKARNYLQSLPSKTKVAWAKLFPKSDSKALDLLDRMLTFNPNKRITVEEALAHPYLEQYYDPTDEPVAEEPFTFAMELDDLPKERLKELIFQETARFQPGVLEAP
The settings on record: for inhibition at 0.1 µM: inhibitor concentration 0.1 μM. In outline:
as §1

Another assay addresses T3, KIT (Homo sapiens, UniProt P10721).
T3 construct: purchased Carna Biosciences
The conditions noted are these: for inhibition at 0.1 µM: inhibitor concentration 0.1 μM. The procedure, abridged: as §1

The next assay deals with T4, Erk2 (Homo sapiens, UniProt P28482).
T4 construct: purchased Carna Biosciences
T4 sequence (P28482 whole entry): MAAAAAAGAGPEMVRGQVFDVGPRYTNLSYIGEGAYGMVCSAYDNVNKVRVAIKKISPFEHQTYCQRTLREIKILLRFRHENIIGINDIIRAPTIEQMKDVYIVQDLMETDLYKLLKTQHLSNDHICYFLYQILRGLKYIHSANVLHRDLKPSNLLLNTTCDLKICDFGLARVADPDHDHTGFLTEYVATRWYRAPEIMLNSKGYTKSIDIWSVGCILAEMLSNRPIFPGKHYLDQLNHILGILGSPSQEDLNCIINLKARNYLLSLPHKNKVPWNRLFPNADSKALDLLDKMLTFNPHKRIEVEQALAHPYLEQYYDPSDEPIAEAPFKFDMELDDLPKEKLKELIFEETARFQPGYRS
The settings on record: for inhibition at 0.1 µM: inhibitor concentration 0.1 μM. The procedure, abridged:
as §1

The next assay deals with T5, BRAF(V600E) (Homo sapiens, UniProt P15056, V600E).
T5 construct: purchased Carna Biosciences
T5 sequence (P15056 whole entry V600E): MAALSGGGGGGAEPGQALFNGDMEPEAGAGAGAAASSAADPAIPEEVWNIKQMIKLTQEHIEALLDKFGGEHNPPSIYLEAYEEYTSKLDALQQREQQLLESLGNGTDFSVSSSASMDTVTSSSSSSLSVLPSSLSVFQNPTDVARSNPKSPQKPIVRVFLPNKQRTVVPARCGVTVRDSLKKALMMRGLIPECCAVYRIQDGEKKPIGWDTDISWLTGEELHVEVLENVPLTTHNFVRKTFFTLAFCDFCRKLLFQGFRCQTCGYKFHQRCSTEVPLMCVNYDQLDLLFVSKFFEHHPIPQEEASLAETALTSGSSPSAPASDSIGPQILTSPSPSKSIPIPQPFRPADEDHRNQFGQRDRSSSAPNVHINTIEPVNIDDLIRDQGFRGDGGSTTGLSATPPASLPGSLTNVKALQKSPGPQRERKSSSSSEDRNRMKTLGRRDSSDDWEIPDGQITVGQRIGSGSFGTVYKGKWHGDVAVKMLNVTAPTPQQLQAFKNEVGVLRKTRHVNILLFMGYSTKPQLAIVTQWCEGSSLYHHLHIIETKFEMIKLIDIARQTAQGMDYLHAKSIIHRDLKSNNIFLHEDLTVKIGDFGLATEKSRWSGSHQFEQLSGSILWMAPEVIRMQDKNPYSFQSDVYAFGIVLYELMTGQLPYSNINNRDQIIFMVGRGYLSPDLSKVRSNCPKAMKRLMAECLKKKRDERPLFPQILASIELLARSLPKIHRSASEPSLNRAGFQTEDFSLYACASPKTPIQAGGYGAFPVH
In outline:
as §1

Another assay concerns the target T6, JAK2 (Homo sapiens, UniProt O60674).
T6 construct: purchased Carna Biosciences
The settings on record: for inhibition at 0.1 µM: inhibitor concentration 0.1 μM. The procedure, abridged:
as §1

The target of a further assay is T7, JAK3 (Homo sapiens, UniProt P52333).
T7 construct: purchased Carna Biosciences
T7 sequence (P52333 1-1124): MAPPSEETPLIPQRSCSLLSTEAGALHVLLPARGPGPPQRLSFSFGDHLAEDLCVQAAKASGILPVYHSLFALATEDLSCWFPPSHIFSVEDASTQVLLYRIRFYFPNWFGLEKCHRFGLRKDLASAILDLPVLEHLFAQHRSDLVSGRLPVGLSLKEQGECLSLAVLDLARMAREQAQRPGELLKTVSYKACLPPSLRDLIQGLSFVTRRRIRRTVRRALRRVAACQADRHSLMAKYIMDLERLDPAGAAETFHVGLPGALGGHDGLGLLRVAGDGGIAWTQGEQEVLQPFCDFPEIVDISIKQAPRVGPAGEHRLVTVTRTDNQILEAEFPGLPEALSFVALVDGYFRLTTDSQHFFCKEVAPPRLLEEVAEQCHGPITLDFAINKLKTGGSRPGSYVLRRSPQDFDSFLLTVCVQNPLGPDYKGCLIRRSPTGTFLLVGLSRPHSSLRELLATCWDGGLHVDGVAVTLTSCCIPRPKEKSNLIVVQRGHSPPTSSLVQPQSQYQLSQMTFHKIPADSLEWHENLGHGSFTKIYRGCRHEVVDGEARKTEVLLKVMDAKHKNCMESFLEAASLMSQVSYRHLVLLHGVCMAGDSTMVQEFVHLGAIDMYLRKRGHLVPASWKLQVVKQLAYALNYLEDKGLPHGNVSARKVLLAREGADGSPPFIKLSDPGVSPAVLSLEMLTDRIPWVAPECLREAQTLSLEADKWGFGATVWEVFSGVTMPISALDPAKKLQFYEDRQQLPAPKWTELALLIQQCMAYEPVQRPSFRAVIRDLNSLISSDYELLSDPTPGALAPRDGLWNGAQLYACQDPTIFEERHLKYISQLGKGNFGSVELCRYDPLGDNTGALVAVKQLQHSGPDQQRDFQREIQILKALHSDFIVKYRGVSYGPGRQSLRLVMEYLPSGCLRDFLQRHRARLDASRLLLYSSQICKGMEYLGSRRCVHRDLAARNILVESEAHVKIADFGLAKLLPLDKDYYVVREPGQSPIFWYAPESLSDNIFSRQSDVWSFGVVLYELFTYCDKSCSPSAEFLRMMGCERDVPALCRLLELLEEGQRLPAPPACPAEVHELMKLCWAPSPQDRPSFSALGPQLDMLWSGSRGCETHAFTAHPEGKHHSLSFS
The settings on record: for inhibition at 0.1 µM: inhibitor concentration 0.1 μM. The procedure, abridged: as §1

The next assay deals with T8, ABL (Homo sapiens, UniProt P00519).
T8 construct: purchased Carna Biosciences
The settings on record: for inhibition at 0.1 µM: inhibitor concentration 0.1 μM. In outline: as §1

Another assay has as its target T9, MNK1 (Homo sapiens, UniProt Q9BUB5).
T9 construct: purchased Carna Biosciences
The conditions noted are these: for inhibition at 0.1 µM: inhibitor concentration 0.1 μM. The procedure, abridged: as §1

A further assay concerns the target T10, AKT1 (Homo sapiens, UniProt P31749).
T10 construct: purchased Carna Biosciences
The conditions noted are these: inhibitor concentration 0.1 μM. In outline: as §1

A further assay deals with T11, PIM3 (Homo sapiens, UniProt Q86V86).
T11 construct: purchased Carna Biosciences
The settings on record: inhibitor concentration 0.1 μM. The procedure, abridged:
as §1

The next assay has as its target T12, ABL(T315I) (Homo sapiens, UniProt P00519, T315I).
T12 construct: purchased Carna Biosciences
The conditions noted are these: inhibitor concentration 0.1 μM. In outline:
as §1

The next assay addresses T13, JNK2 (Homo sapiens, UniProt P45984).
T13 construct: purchased Carna Biosciences
The settings on record: inhibitor concentration 0.1 μM. In outline:
as §1

Setting [1] is: inhibitor concentration 0.01 μM.
Where [2] appears, read: inhibitor concentration 0.01 μM, 0.01 µM.

T1 sequence (P07948 1-491 isoform P07948-2): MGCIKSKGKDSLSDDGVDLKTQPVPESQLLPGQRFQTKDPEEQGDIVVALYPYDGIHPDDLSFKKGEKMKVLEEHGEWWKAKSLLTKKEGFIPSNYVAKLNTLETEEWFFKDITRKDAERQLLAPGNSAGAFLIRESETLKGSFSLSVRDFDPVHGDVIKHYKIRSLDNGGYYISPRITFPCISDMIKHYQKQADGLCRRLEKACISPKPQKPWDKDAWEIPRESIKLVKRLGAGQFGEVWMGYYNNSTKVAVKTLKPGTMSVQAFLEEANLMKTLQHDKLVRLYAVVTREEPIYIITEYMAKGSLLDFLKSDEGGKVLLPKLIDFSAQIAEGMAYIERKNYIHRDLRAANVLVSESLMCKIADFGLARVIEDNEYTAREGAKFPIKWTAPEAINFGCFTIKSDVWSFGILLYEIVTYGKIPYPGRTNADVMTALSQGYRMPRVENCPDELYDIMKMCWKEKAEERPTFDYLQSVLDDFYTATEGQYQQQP
T9 sequence (Q9BUB5 whole entry): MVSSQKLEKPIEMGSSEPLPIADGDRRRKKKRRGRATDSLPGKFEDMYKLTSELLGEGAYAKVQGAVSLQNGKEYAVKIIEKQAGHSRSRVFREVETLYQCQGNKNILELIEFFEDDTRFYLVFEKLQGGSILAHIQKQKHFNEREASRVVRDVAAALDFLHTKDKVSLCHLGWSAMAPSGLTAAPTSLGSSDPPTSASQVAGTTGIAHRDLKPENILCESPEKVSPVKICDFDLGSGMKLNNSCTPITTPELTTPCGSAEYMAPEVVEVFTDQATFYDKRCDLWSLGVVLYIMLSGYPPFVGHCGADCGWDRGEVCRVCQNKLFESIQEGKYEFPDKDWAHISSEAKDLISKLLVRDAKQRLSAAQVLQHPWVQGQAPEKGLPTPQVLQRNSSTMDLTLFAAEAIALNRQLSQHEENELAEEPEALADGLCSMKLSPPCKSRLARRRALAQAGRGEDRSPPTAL
T6 sequence (O60674 whole entry): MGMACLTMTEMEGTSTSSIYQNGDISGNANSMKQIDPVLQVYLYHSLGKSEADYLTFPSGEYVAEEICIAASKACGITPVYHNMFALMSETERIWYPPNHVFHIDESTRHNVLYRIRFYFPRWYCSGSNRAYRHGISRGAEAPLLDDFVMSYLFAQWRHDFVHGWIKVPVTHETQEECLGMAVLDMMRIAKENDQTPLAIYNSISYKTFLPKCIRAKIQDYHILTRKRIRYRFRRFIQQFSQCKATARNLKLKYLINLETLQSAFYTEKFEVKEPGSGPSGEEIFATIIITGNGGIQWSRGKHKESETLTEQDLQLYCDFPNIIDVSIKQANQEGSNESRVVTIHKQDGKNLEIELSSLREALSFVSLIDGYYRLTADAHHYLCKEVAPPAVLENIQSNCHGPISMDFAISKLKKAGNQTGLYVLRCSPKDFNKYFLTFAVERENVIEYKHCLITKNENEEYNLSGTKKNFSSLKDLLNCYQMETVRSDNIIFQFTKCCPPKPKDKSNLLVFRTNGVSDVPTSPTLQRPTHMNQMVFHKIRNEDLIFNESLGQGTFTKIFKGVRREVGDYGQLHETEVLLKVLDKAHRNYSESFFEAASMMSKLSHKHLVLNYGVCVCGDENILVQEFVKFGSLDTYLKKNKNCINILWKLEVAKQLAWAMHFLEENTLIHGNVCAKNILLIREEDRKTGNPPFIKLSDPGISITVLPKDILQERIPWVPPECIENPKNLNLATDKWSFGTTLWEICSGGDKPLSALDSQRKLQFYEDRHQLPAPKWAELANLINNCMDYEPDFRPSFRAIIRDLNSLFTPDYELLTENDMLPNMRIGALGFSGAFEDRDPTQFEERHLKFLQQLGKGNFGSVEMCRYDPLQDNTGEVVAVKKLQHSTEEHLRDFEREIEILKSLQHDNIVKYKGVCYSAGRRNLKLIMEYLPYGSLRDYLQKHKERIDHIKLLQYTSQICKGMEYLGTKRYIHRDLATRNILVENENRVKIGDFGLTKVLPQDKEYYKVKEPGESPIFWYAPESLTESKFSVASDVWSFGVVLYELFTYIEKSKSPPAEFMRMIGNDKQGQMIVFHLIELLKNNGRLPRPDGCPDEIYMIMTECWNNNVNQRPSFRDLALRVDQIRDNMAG
T13 sequence (P45984 whole entry): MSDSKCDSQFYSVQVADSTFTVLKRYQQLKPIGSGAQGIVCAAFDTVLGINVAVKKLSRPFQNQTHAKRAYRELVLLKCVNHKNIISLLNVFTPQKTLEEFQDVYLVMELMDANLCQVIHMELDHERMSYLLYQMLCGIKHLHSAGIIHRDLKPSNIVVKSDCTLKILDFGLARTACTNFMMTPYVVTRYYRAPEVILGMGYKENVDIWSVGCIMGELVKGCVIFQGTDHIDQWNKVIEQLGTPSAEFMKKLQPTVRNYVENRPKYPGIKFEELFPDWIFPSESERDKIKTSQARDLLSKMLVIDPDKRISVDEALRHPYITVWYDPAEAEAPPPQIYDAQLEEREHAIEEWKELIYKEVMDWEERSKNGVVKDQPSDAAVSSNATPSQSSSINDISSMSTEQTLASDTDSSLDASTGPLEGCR
T10 sequence (P31749 whole entry): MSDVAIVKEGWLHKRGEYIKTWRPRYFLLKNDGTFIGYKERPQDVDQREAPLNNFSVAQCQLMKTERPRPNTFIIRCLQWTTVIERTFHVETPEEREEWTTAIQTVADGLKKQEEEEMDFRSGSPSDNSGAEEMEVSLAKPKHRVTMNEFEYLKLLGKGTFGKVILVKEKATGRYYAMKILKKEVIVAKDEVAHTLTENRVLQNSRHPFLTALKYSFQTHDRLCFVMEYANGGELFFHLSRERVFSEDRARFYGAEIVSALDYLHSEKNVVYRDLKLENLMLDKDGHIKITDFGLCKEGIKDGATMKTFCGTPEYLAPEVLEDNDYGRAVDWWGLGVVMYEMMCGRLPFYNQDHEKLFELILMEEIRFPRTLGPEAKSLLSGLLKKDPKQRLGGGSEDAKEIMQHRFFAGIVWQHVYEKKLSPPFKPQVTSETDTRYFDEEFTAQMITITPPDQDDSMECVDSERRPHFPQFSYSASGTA

For the compound `O=C(c1c(F)ccc(NS(=O)(=O)CCCO)c1F)c1c[nH]c2ncc(-c3ccc(Cl)cc3)cc12` [200-17, N-[3-[5-(4-chlorophenyl)-1H-pyrrolo[2,3-b]pyridine-3-carbonyl]-2,4-difluorophenyl]-3-hydroxypropane-1-sulfonamide], the inhibition at 0.01 µM on LYNb (setting [1]) was less than 30%; at KIT (setting [1]), greater than 30%; at JAK2 (setting [1]), less than 30%; on JAK3 (setting [1]), less than 30%. The inhibition at 0.1 µM on LYNb is greater than 50%; at KIT it was greater than 50%; at JAK2, greater than 50%; at JAK3 it was less than 50%. Moreover, the inhibition at 1 µM is greater than 50% at LYNb (inhibitor concentration 1 μM); less than 50% on Erk1 (inhibitor concentration 1 μM); greater than 50% on KIT (inhibitor concentration 1 μM); less than 50% at Erk2 (inhibitor concentration 1 μM); greater than 50% at BRAF(V600E) (inhibitor concentration 1 μM); greater than 50% on JAK2 (inhibitor concentration 1 μM). The inhibition at 1 µM on JAK3 (inhibitor concentration 1 μM) was greater than 50%; on ABL (inhibitor concentration 1 μM), less than 50%; at MNK1 (inhibitor concentration 1 μM) it was greater than 50%.
As for `CC(O)CS(=O)(=O)Nc1ccc(F)c(C(=O)c2c[nH]c3ncc(-c4ccc(Cl)cc4)cc23)c1F` (stereo not shown) [200-115], the inhibition at 0.1 µM at LYNb, on Erk1, on KIT, at Erk2, on AKT1 and on PIM3 was less than 30% throughout. The inhibition at 0.1 µM at JAK2, on JAK3, on ABL(T315I), at JNK2, on ABL and at MNK1 was less than 30% in each case.
`C/C=C/S(=O)(=O)Nc1ccc(F)c(C(=O)c2c[nH]c3ncc(-c4ccc(Cl)cc4)cc23)c1F` [200-93b]: the KIT inhibition at KIT (setting [2]) is given as less than 20%. Also, the “BRAF(V600E) inhibition” value at BRAF(V600E) (setting [2]) is recorded as less than 20%. For the same compound, the JAK2 inhibition at JAK2 (setting [2]) is less than 20%. Also, the JAK3 inhibition at JAK3 (setting [2]) is less than 20%.
With `O=C(c1c(F)ccc(NS(=O)(=O)CC(O)CO)c1F)c1c[nH]c2ncc(-c3ccc(Cl)cc3)cc12` (stereo not drawn) [200-73, N-[3-[5-(4-chlorophenyl)-lH-pyrrolo [2,3-b]pyridine-3-carbonyl]-2,4-difluorophenyl]-2,3-dihydroxypropane-l-sulfonamide], the inhibition at 0.1 µM at LYNb, at Erk1, on KIT, at Erk2, on AKT1 and on PIM3 was less than 30% each time. Further, the inhibition at 0.1 µM at BRAF(V600E) (inhibitor concentration 0.1 μM), on JAK2, on JAK3, on ABL(T315I), on JNK2 and at ABL was less than 30% in each case. Besides, the inhibition at 0.1 µM at MNK1 is less than 30%.
With `CC(=O)CS(=O)(=O)Nc1ccc(F)c(C(=O)c2c[nH]c3ncc(-c4ccc(Cl)cc4)cc23)c1F` [200-117], the inhibition at 0.1 µM is greater than 30% on LYNb; less than 30% at Erk1; less than 30% at KIT; less than 30% on Erk2; less than 30% at AKT1; less than 30% at PIM3. In addition, the inhibition at 0.1 µM on JAK2, at JAK3, at ABL(T315I), at JNK2, on ABL and at MNK1 was less than 30% in each case.

The inhibition is how much of the control response was suppressed.
